# Experimental data: US4757133A, “Physiologically active peptide” (Eisai Co., Ltd., priority 1986, dated 1988)
# Peptide text beside a SMILES is read from it.
# Tested on: smooth muscle of a bronchus
# Test: Relaxation of muscle of bronchus removed from guinea pig (histamine-contracted tracheal chain, four-point assay)
# Conditions: isolated guinea pig trachea chain, 6.5×10^-6 M histamine in Krebs solution at 37° C.; samples at 10^-5 M; area value of VIP-NH2 taken as 100%
# Description: A. Determination on Relaxation of Muscle of Bronchus Removed from Guinea Pig:
# The juglar vein of a male guinea pig weighing 300 g or more is cut, causing the guinea pig to be bled to death. The guinea pig undergoes thoracotomy. Immediately after the thoracotomy, 3 cm of the trachea is taken out. The trachea is immediately put in a Krebs solution. It is then cut into seven equal rings, and the cartilages are connected to one another with a cotton yarn to form a chain. Subsequently, the smooth muscle parts and cartilages opposite them are cut, so that the smooth muscle parts can be connected to one another. The preparation thus prepared is placed in an isothermic glass cell having an internal capacity of about 7 ml and suspended from above. The lower part of the preparation is fixed, while the upper part is connected to an isometric transducer, to which 0.5 g of a load has been applied, in order to determine the relaxation reaction. Sufficient amounts of 95% oxygen and 5% carbon dioxide gas are blown into the preparation. Further, a Krebs solution of 37° C. containing 6.5×10^-6 M histamine is dropped on the preparation from above at a flow rate of 3.3 ml/min. The relaxation reaction takes place to an extent proportional to the amount of a sample added to the dropped solution. By utilizing this relationship, the relaxation activity against bronchial smooth muscle with respect to the substance of the present invention is compared with that of VIP-NH2. VIP-NH2 is used at a concentration of 10^-5 M and dropped in amounts of 40 μl and 80 μl. The substance of the present invention is also used at a concentration of 10^-5 M and dropped in amounts of 10 μl and 20 μl. The value of the area (height×time) in relaxation of each case is determined. The specific activities are obtained by taking the area value of VIP-NH2 as 100% and determining the relative ratio of the area value of each case. Thus, the relaxation reactions are compared by the four-point assay method, with respect to the above-mentioned determination method, reference may be made to the following articles (e) and (f):
# (e) W. L. M. Perry, Pharmacological Experiments on Isolated Preparations: E & S Livingstone LTD. 1968; and
# (f) Castillo, De Beer, J. Phamac. Exp. Ther. 90, 104 (1947).
row,SMILES,A: specific activity (%) obtained by method A (relaxation area value relative to VIP-NH2)
1,CC[C@H](C)[C@H](NC(=O)[C@H](CO)NC(=O)[C@H](CC(N)=O)NC(=O)[C@H](CC(C)C)NC(=O)[C@H](Cc1ccc(O)cc1)NC(=O)[C@H](CCCCN)NC(=O)[C@H](CCCCN)NC(=O)[C@@H](NC(=O)[C@H](C)NC(=O)[C@H](CCSC)NC(=O)[C@H](CCC(N)=O)NC(=O)[C@H](CCCCN)NC(=O)[C@H](CCCNC(=N)N)NC(=O)[C@H](CC(C)C)NC(=O)[C@H](CCCNC(=N)N)NC(=O)[C@@H](NC(=O)[C@H](Cc1ccc(O)cc1)NC(=O)[C@H](CC(N)=O)NC(=O)[C@H](CC(=O)O)NC(=O)[C@@H](NC(=O)[C@H](Cc1ccccc1)NC(=O)[C@@H](NC(=O)[C@H](C)NC(=O)[C@H](CC(=O)O)NC(=O)[C@H](CO)NC(=O)[C@@H](N)Cc1c[nH]cn1)C(C)C)[C@@H](C)O)[C@@H](C)O)C(C)C)C(=O)N[C@@H](CC(C)C)C(=O)N[C@@H](CC(N)=O)C(=O)NCC(=O)N[C@@H](CCCNC(=N)N)C(=O)O [X=Met Y=Arg-OH],220%
2,CC[C@H](C)[C@H](NC(=O)[C@H](CO)NC(=O)[C@H](CC(N)=O)NC(=O)[C@H](CC(C)C)NC(=O)[C@H](Cc1ccc(O)cc1)NC(=O)[C@H](CCCCN)NC(=O)[C@H](CCCCN)NC(=O)[C@@H](NC(=O)[C@H](C)NC(=O)[C@H](CCSC)NC(=O)[C@H](CCC(N)=O)NC(=O)[C@H](CCCCN)NC(=O)[C@H](CCCNC(=N)N)NC(=O)[C@H](CC(C)C)NC(=O)[C@H](CCCNC(=N)N)NC(=O)[C@@H](NC(=O)[C@H](Cc1ccc(O)cc1)NC(=O)[C@H](CC(N)=O)NC(=O)[C@H](CC(=O)O)NC(=O)[C@@H](NC(=O)[C@H](Cc1ccccc1)NC(=O)[C@@H](NC(=O)[C@H](C)NC(=O)[C@H](CC(=O)O)NC(=O)[C@H](CO)NC(=O)[C@@H](N)Cc1c[nH]cn1)C(C)C)[C@@H](C)O)[C@@H](C)O)C(C)C)C(=O)N[C@@H](CC(C)C)C(=O)N[C@@H](CC(N)=O)C(=O)NCC(=O)N[C@@H](CCCCN)C(N)=O [X=Met Y=Lys-NH2],140%
3,CC[C@H](C)[C@H](NC(=O)[C@H](CO)NC(=O)[C@H](CC(N)=O)NC(=O)[C@H](CC(C)C)NC(=O)[C@H](Cc1ccc(O)cc1)NC(=O)[C@H](CCCCN)NC(=O)[C@H](CCCCN)NC(=O)[C@@H](NC(=O)[C@H](C)NC(=O)[C@H](CCSC)NC(=O)[C@H](CCC(N)=O)NC(=O)[C@H](CCCCN)NC(=O)[C@H](CCCNC(=N)N)NC(=O)[C@H](CC(C)C)NC(=O)[C@H](CCCNC(=N)N)NC(=O)[C@@H](NC(=O)[C@H](Cc1ccc(O)cc1)NC(=O)[C@H](CC(N)=O)NC(=O)[C@H](CC(=O)O)NC(=O)[C@@H](NC(=O)[C@H](Cc1ccccc1)NC(=O)[C@@H](NC(=O)[C@H](C)NC(=O)[C@H](CC(=O)O)NC(=O)[C@H](CO)NC(=O)[C@@H](N)Cc1c[nH]cn1)C(C)C)[C@@H](C)O)[C@@H](C)O)C(C)C)C(=O)N[C@@H](CC(C)C)C(=O)N[C@@H](CC(N)=O)C(=O)NCC(=O)O [X=Met Y=OH],70%
4,CC[C@H](C)[C@H](NC(=O)[C@H](CO)NC(=O)[C@H](CC(N)=O)NC(=O)[C@H](CC(C)C)NC(=O)[C@H](Cc1ccc(O)cc1)NC(=O)[C@H](CCCCN)NC(=O)[C@H](CCCCN)NC(=O)[C@@H](NC(=O)[C@H](C)NC(=O)[C@H](CC(C)C)NC(=O)[C@H](CCC(N)=O)NC(=O)[C@H](CCCCN)NC(=O)[C@H](CCCNC(=N)N)NC(=O)[C@H](CC(C)C)NC(=O)[C@H](CCCNC(=N)N)NC(=O)[C@@H](NC(=O)[C@H](Cc1ccc(O)cc1)NC(=O)[C@H](CC(N)=O)NC(=O)[C@H](CC(=O)O)NC(=O)[C@@H](NC(=O)[C@H](Cc1ccccc1)NC(=O)[C@@H](NC(=O)[C@H](C)NC(=O)[C@H](CC(=O)O)NC(=O)[C@H](CO)NC(=O)[C@@H](N)Cc1c[nH]cn1)C(C)C)[C@@H](C)O)[C@@H](C)O)C(C)C)C(=O)N[C@@H](CC(C)C)C(=O)N[C@@H](CC(N)=O)C(=O)NCC(=O)N[C@@H](CCCCN)C(N)=O [X=Leu Y=Lys-NH2] (H-HSDAVFTDNYTRLRKQLAVKKYLNSILNGK-NH2),300%
5,CC[C@H](C)[C@H](NC(=O)[C@H](CO)NC(=O)[C@H](CC(N)=O)NC(=O)[C@H](CC(C)C)NC(=O)[C@H](Cc1ccc(O)cc1)NC(=O)[C@H](CCCCN)NC(=O)[C@H](CCCCN)NC(=O)[C@@H](NC(=O)[C@H](C)NC(=O)[C@H](CCSC)NC(=O)[C@H](CCC(N)=O)NC(=O)[C@H](CCCCN)NC(=O)[C@H](CCCNC(=N)N)NC(=O)[C@H](CC(C)C)NC(=O)[C@H](CCCNC(=N)N)NC(=O)[C@@H](NC(=O)[C@H](Cc1ccc(O)cc1)NC(=O)[C@H](CC(N)=O)NC(=O)[C@H](CC(=O)O)NC(=O)[C@@H](NC(=O)[C@H](Cc1ccccc1)NC(=O)[C@@H](NC(=O)[C@H](C)NC(=O)[C@H](CC(=O)O)NC(=O)[C@H](CO)NC(=O)[C@@H](N)Cc1c[nH]cn1)C(C)C)[C@@H](C)O)[C@@H](C)O)C(C)C)C(=O)N[C@@H](CC(C)C)C(=O)N[C@@H](CC(N)=O)C(=O)NCC(=O)N[C@@H](CCCCN)C(=O)O [X=Met Y=Lys-OH],300%
6,CC[C@H](C)[C@H](NC(=O)[C@H](CO)NC(=O)[C@H](CC(N)=O)NC(=O)[C@H](CC(C)C)NC(=O)[C@H](Cc1ccc(O)cc1)NC(=O)[C@H](CCCCN)NC(=O)[C@H](CCCCN)NC(=O)[C@@H](NC(=O)[C@H](C)NC(=O)[C@H](CC(C)C)NC(=O)[C@H](CCC(N)=O)NC(=O)[C@H](CCCCN)NC(=O)[C@H](CCCNC(=N)N)NC(=O)[C@H](CC(C)C)NC(=O)[C@H](CCCNC(=N)N)NC(=O)[C@@H](NC(=O)[C@H](Cc1ccc(O)cc1)NC(=O)[C@H](CC(N)=O)NC(=O)[C@H](CC(=O)O)NC(=O)[C@@H](NC(=O)[C@H](Cc1ccccc1)NC(=O)[C@@H](NC(=O)[C@H](C)NC(=O)[C@H](CC(=O)O)NC(=O)[C@H](CO)NC(=O)[C@@H](N)Cc1c[nH]cn1)C(C)C)[C@@H](C)O)[C@@H](C)O)C(C)C)C(=O)N[C@@H](CC(C)C)C(=O)N[C@@H](CC(N)=O)C(=O)NCC(=O)N[C@@H](CCCCN)C(=O)N[C@@H](CCCNC(=N)N)C(=O)O [X=Leu Y=Lys-Arg-OH] (H-HSDAVFTDNYTRLRKQLAVKKYLNSILNGKR-OH),410%
7,CC[C@H](C)[C@H](NC(=O)[C@H](CO)NC(=O)[C@H](CC(N)=O)NC(=O)[C@H](CC(C)C)NC(=O)[C@H](Cc1ccc(O)cc1)NC(=O)[C@H](CCCCN)NC(=O)[C@H](CCCCN)NC(=O)[C@@H](NC(=O)[C@H](C)NC(=O)[C@H](CC(C)C)NC(=O)[C@H](CCC(N)=O)NC(=O)[C@H](CCCCN)NC(=O)[C@H](CCCNC(=N)N)NC(=O)[C@H](CC(C)C)NC(=O)[C@H](CCCNC(=N)N)NC(=O)[C@@H](NC(=O)[C@H](Cc1ccc(O)cc1)NC(=O)[C@H](CC(N)=O)NC(=O)[C@H](CC(=O)O)NC(=O)[C@@H](NC(=O)[C@H](Cc1ccccc1)NC(=O)[C@@H](NC(=O)[C@H](C)NC(=O)[C@H](CC(=O)O)NC(=O)[C@H](CO)NC(=O)[C@@H](N)Cc1c[nH]cn1)C(C)C)[C@@H](C)O)[C@@H](C)O)C(C)C)C(=O)N[C@@H](CC(C)C)C(=O)N[C@@H](CC(N)=O)C(=O)NCC(=O)N[C@@H](CCCCN)C(=O)O [X=Leu Y=Lys-OH] (H-HSDAVFTDNYTRLRKQLAVKKYLNSILNGK-OH),410%
8,CC[C@H](C)[C@H](NC(=O)[C@H](CO)NC(=O)[C@H](CC(N)=O)NC(=O)[C@H](CC(C)C)NC(=O)[C@H](Cc1ccc(O)cc1)NC(=O)[C@H](CCCCN)NC(=O)[C@H](CCCCN)NC(=O)[C@@H](NC(=O)[C@H](C)NC(=O)[C@H](CCSC)NC(=O)[C@H](CCC(N)=O)NC(=O)[C@H](CCCCN)NC(=O)[C@H](CCCNC(=N)N)NC(=O)[C@H](CC(C)C)NC(=O)[C@H](CCCNC(=N)N)NC(=O)[C@@H](NC(=O)[C@H](Cc1ccc(O)cc1)NC(=O)[C@H](CC(N)=O)NC(=O)[C@H](CC(=O)O)NC(=O)[C@@H](NC(=O)[C@H](Cc1ccccc1)NC(=O)[C@@H](NC(=O)[C@H](C)NC(=O)[C@H](CC(=O)O)NC(=O)[C@H](CO)NC(=O)[C@@H](N)Cc1c[nH]cn1)C(C)C)[C@@H](C)O)[C@@H](C)O)C(C)C)C(=O)N[C@@H](CC(C)C)C(=O)N[C@@H](CC(N)=O)C(=O)NCC(=O)N[C@@H](CCCCN)C(=O)N[C@@H](CCCNC(=N)N)C(=O)O [X=Met Y=Lys-Arg-OH],460%
